Several values for one entry are separate records, joined by “and”; a condition that tells them apart may be missing. Equal entries are not always repeated.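 Test compounds were applied to cells in 96-well plates for 48 hours at 5 doses. The concentration for 50% growth inhibition is given as GI50. At the TGI there is no net growth.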
Assays:
Test in all cases: inhibition of tumour cell growth, NCI panel, 48 h
SK-OV-3 ovarian = system: SK-OV-3 ovarian
CCRF-CEM leukemia = system: CCRF-CEM leukemia
HCC-2998 colon = system: HCC-2998 colon
TK-10 renal = system: TK-10 renal
MDA-MB-231 breast = system: MDA-MB-231 breast
786-0 renal = system: 786-0 renal
SF-539 CNS = system: SF-539 CNS
OVCAR-3 ovarian = system: OVCAR-3 ovarian
MDA-MB-435 = system: MDA-MB-435
PC-3 prostate = system: PC-3 prostate

Structure (SMILES)	GI50 (SK-OV-3 ovarian)	TGI (SK-OV-3 ovarian)	GI50 (CCRF-CEM leukemia)	TGI (CCRF-CEM leukemia)	GI50 (HCC-2998 colon)	TGI (HCC-2998 colon)	GI50 (TK-10 renal)	TGI (TK-10 renal)	GI50 (MDA-MB-231 breast)	TGI (MDA-MB-231 breast)	GI50 (786-0 renal)	TGI (786-0 renal)	GI50 (SF-539 CNS)	TGI (SF-539 CNS)	GI50 (OVCAR-3 ovarian)	TGI (OVCAR-3 ovarian)	GI50 (MDA-MB-435)	TGI (MDA-MB-435)	GI50 (PC-3 prostate)	TGI (PC-3 prostate)
O=Nc1ccc(NO)c2ccccc12	19.1 µM	35.6 µM	8040 nM	58.9 µM	17.4 µM	31.7 µM	27.6 µM	42.5 µM	10.3 µM	47.5 µM	18.6 µM	33.1 µM	17.1 µM	31.1 µM	2370 nM	12 µM	1940 nM	3.57 µM	2.44 µM	13.2 µM
O=C(O)C1(C(=O)O)CCC1.[NH2-].[NH2-].[Pt+2]	172 µM and > 240 µM	243 µM and > 250 µM	73500 nM and 22700 nM	> 250 µM	209 µM and > 250 µM	> 250 µM	220 µM and 131 µM	> 250 µM	247 µM and > 250 µM	> 250 µM	111 µM and 67.9 µM	248 µM and > 250 µM	81.2 µM and 96 µM	221 µM and > 250 µM	58400 nM and 112000 nM	139 µM and 195 µM	180000 nM and > 250000 nM	> 250 µM	> 250 µM	> 250 µM
C/C1=C/C(=O)O[C@@H]2C[C@@H](CC[C@H](C)/C=C\C=C\CC1)O[C@@](O)([C@@H]1CSC(=O)N1)C2		> 9.4 µM		> 10 µM		> 10 µM		1.01 µM		> 2.65 µM		> 10 µM		0.991 µM		4.25 µM		> 2.24 µM		> 10 µM
COc1cc(NCCCN=C(N)NC(N)=NC(C)C)c2ncccc2c1	> 74.8 µM	> 100 µM	7610 nM	45.7 µM	3.29 µM	22.1 µM	15.7 µM	46.1 µM	1.96 µM	14.3 µM	50.7 µM	> 100 µM	5.08 µM	30 µM	112 nM	0.876 µM	17700 nM	35 µM	6 µM	35.5 µM
Cc1nc(-c2cn3c(n2)-c2ccc(-c4cnn(C(C)(C)C(N)=O)c4)cc2OCC3)n(C(C)C)n1	< 0.0126 µM and 0.0162 µM	0.137 µM	338 nM and 765 nM	27.8 µM and > 10 µM	0.895 µM and 0.295 µM	17.2 µM and > 10 µM	0.0722 µM and 0.0489 µM	32.1 µM and > 10 µM	6.44 µM and 4.11 µM	35.9 µM and > 10 µM	1.05 µM and 0.747 µM	> 100 µM	0.654 µM and 0.493 µM	6.13 µM and 5.83 µM	876 nM and 582 nM	16.6 µM and > 10 µM	2310 nM and 2670 nM	26.2 µM and > 10 µM	0.249 µM and 0.374 µM	> 75.3 µM
COc1ccc2ccccc2c1C1NC(=O)c2ccccc2N1 (stereo not drawn)		9.29 µM		> 28.3 µM		5.92 µM		> 100 µM		> 41.8 µM		> 38 µM		5.78 µM		1.92 µM		0.461 µM		3.19 µM
Clc1ccc(-c2c3c(nn2-c2ccccn2)CCc2ccccc2-3)cc1Cl	> 100 µM	> 100 µM	> 100000 nM	> 100 µM	> 100 µM	> 100 µM	65.6 µM	> 100 µM	73.7 µM	> 100 µM	85 µM	> 100 µM	> 100 µM	> 100 µM	> 100000 nM	> 100 µM	> 100000 nM	> 100 µM	> 100 µM	> 100 µM
CS(=O)(=O)CCc1cccc(C(=O)c2cnn(-c3ccc(F)cc3)c2N)c1	> 25 µM	> 25 µM	> 25000 nM	> 25 µM	> 25 µM	> 25 µM	> 25 µM	> 25 µM	> 25 µM	> 25 µM	> 25 µM	> 25 µM	> 25 µM	> 25 µM	> 25000 nM	> 25 µM	> 25000 nM	> 25 µM	> 25 µM	> 25 µM
COc1cc(-c2cc(O)c(-c3ccc4ccccc4n3)c(=O)[nH]2)cc(OC)c1OC		> 73.2 µM		> 30.6 µM		> 100 µM		> 100 µM		> 70.2 µM		> 69.6 µM		74.5 µM		> 48.9 µM		11.6 µM		> 100 µM
Cc1nnc(-c2cccc(-c3ccc(C(=O)NCC4CC4)cc3)c2)o1	> 25 µM	> 25 µM	> 25000 nM	> 25 µM	> 25 µM	> 25 µM	> 25 µM	> 25 µM	> 25 µM	> 25 µM	> 25 µM	> 25 µM	> 25 µM	> 25 µM	> 25000 nM	> 25 µM	> 25000 nM	> 25 µM	> 25 µM	> 25 µM
O=c1cc(-c2cccc3c2Sc2ccccc2S3)oc(N2CCOCC2)c1	13.4 µM	27.3 µM	21100 nM	> 55.8 µM	11.6 µM	25.8 µM	12.2 µM	25 µM	11.8 µM	29.5 µM	4.05 µM	18.3 µM	11.6 µM	25.1 µM	10100 nM	21.9 µM	3540 nM	13.5 µM	6.26 µM	20.9 µM
O=C(NCCCO)c1cc(Cl)ccc1O	3.31 µM	12.3 µM	728 nM	17.3 µM	3.1 µM	14.3 µM	4.26 µM	15.1 µM	3.64 µM	12.8 µM	3.14 µM	11.8 µM	4.85 µM	17.5 µM	1600 nM	9.11 µM	2680 nM	12.1 µM	2.06 µM	10.2 µM
Oc1ccc(-c2nc3ccccc3s2)cc1CN(Cc1ccccn1)Cc1ccccn1	1.35 µM	43.5 µM	1090 nM	> 100 µM	3.23 µM	17 µM	0.486 µM	34.6 µM	1.3 µM	13.7 µM	0.353 µM	10.1 µM	1.42 µM	6.75 µM	2730 nM	18.1 µM	2240 nM	11.3 µM	1.09 µM	21.8 µM
CCC(=C/[C@H](C)C/C=C/C(C)=C/[C@@H](C)C(=O)[C@@H](C)[C@H](O)[C@@H](C)CC)/C=C/[C@@H]1OC(=O)C=C[C@H]1C	< 0.01 µM	< 0.0115 µM	20.1 nM	0.16 µM	< 0.01 µM	< 0.01 µM	< 0.01 µM	1.52 µM	< 0.01 µM	1.77 µM	< 0.01 µM	< 0.01 µM	< 0.01 µM		< 10 nM	< 0.01 µM	< 10 nM	< 0.01 µM	< 0.01 µM	1.52 µM
CCN(CC)CCCNCc1cc(-c2ccccc2)nc2ccccc12	52.1 µM	> 100 µM	2220 nM	> 100 µM	14.9 µM	31.1 µM	5.09 µM	31.8 µM	3.99 µM	24 µM	11.1 µM	28.3 µM	3.24 µM	8.49 µM	4130 nM	> 100 µM	4470 nM	24.3 µM	11.2 µM	> 100 µM
CC(=O)c1c(C)[nH]c(-c2nc3ccc(N4CCN(C)CC4)cc3[nH]2)c1-c1ccc(N(C)C)cc1	0.465 µM	3.65 µM	1160 nM	> 37.7 µM	1.06 µM	8.38 µM	0.294 µM	15.8 µM	0.645 µM	16.9 µM	1.44 µM	16.7 µM	1.15 µM	17.7 µM	1170 nM	17 µM	554 nM	13.7 µM	0.894 µM	66.9 µM
C[As](C)SCC(COC(=O)C(Cl)c1ccccc1)OC(=O)C(Cl)c1ccccc1 (stereo not drawn)	2.63 µM	> 54.9 µM	339 nM	2.14 µM	1.72 µM	4.75 µM	0.222 µM	1.58 µM	1.53 µM	4.95 µM	0.884 µM	8.05 µM	0.968 µM	3.43 µM	179 nM	0.474 µM	367 nM	3.13 µM	0.74 µM	19.4 µM
CN(C)CCNC(=O)c1cccc(N(C)C(=O)c2ccccc2)c1[N+](=O)[O-]		> 100 µM		> 100 µM		> 100 µM		> 100 µM		> 100 µM		> 100 µM		> 100 µM		> 100 µM		> 100 µM		> 100 µM
C#Cc1c(/C=C/C(=O)OCC)ccc2ccccc12	58.8 µM	> 100 µM	14600 nM	30.9 µM	27.4 µM	> 100 µM	30.4 µM	79.1 µM	13.4 µM	35 µM	27.5 µM	74 µM	22.3 µM	48.9 µM	16000 nM	40.6 µM	2110 nM	5.78 µM	18.3 µM	63.6 µM
CCN(CC)CC(O)CNc1c2ccc([N+](=O)[O-])cc2nc2cc(OC)c(OC)cc12 (stereo not drawn)	0.535 µM	2.84 µM	517 nM	10.4 µM	0.24 µM	0.576 µM	1.94 µM	9.79 µM	0.244 µM	0.883 µM	0.659 µM	3.88 µM	0.35 µM	1.45 µM	207 nM	0.543 µM	374 nM	1.42 µM	0.329 µM	1.05 µM
CC(C)=CCC/C(C)=C/CC/C(C)=C/CSc1ccccc1C(=O)O	37.6 µM	> 100 µM and 62.8 µM	32300 nM	> 100 µM and 74.2 µM	28.9 µM	92.4 µM and 33.6 µM	36.4 µM	> 92.3 µM and 99.1 µM	28.3 µM	61.7 µM and 55.8 µM	23.1 µM	78.9 µM and 32.1 µM	19.9 µM	42.2 µM and 33.9 µM		33.8 µM and 30.9 µM	27400 nM	73.6 µM and 55.5 µM	27 µM	> 59.3 µM and 34.1 µM
O=C(Cc1ccc(F)c(F)c1)Nc1cc(C2(C(F)(F)F)CC2)nn1Cc1ccccc1	3.56 µM	11.8 µM	4790 nM	> 15 µM	4.77 µM	> 15 µM	4.5 µM	> 15 µM	3.05 µM	7.25 µM	4.52 µM	> 15 µM	4.33 µM	> 15 µM	3850 nM	14.5 µM	3670 nM	11.4 µM	4.67 µM	> 15 µM
O=C(c1ccccc1)C1OC1c1ccc([N+](=O)[O-])cc1 (stereo not drawn)	29.1 µM	90.3 µM	2890 nM	> 100 µM	11 µM	26.1 µM	6.1 µM	50.8 µM	11 µM	33.1 µM	17.7 µM	70.7 µM	10.2 µM	76.8 µM	3840 nM	17.8 µM	2950 nM	> 100 µM	9.9 µM	> 100 µM
COCc1cc(C(=O)Nc2cc([C@H]3CC[C@@H](OC(=O)NC(C)C)C3)[nH]n2)n(C)n1	28.6 µM	96.2 µM	4780 nM	70.2 µM	5.39 µM	48.2 µM	19.9 µM	> 100 µM	16.6 µM	91.1 µM	11.2 µM	> 100 µM	6.34 µM	43.7 µM	2550 nM	30.6 µM	16100 nM	> 100 µM	10.3 µM	73.6 µM
Cc1nc2ccccc2c(/C=C/c2ccc(Cl)cc2)c1C(=O)/C=C/c1ccc(C(F)(F)F)cc1	1.67 µM	3.1 µM	291 nM	> 100 µM	0.393 µM	1.35 µM	1.69 µM	3.09 µM	0.301 µM	0.947 µM	0.33 µM	1.26 µM	0.24 µM	0.636 µM	292 nM	0.82 µM	243 nM	0.655 µM	0.537 µM	2.18 µM
CC(C)O/N=C/c1cc(NC(=S)OC(C)C)ccc1Cl		98.3 µM		34.6 µM		> 75.3 µM		> 100 µM		62 µM		> 65.6 µM		> 78.8 µM		> 52.6 µM		> 100 µM		> 100 µM

— PubChem BioAssay (NCI)
